According to publication PMC4890124, “Antimicrobial activity, improved cell selectivity and mode of action of short PMAP-36-derived peptides against bacteria and Candida” (Scientific Reports, 2016):
Like-named read-outs stand apart in the source and are kept apart here. Marks after values point to notes of the source that are not given here. Peptide text beside a SMILES is read from it.

Tests used:
[1] = test system: Bacillus subtilis CMCC 63501; type: cell-based
Experimental: (§1) The peptide antibacterial activity was determined against both gram-positive and gram-negative bacteria strains, including Escherichia coli ATCC 25922, Escherichia coli UB1005, Salmonella enterica serovar typhimurium C77-31, Staphylococcus aureus ATCC 29213, Staphylococcus aureus ATCC 25923, Bacillus subtilis CMCC 63501, and Staphylococcus epidermidis ATCC 12228. Clinically isolated Escherichia coli EC183 was provided by the 4th Affiliated Hospital of Harbin Medical University. MIC of the peptides was measured using a modified version of the National Committee for Clinical Laboratory Standards (NCCLS) broth microdilution method as described previously. The bacterial strains were inoculated and grown to mid-log phase in fresh Mueller-Hinton broth (MHB) at 37 °C. Bacterial inoculum suspensions were prepared at a final concentration of approximately 1 × 10^5 CFU/ml. Peptides were 2-fold serially diluted to make different concentrations, from 0.5 to 256 μM. Equal volumes of inoculum suspensions were then added to each well of a sterile 96-well plate with different concentrations of peptides, and the plate was incubated for 18 h at 37 °C. Broth with or without bacteria was employed as the positive control or the negative control, respectively. MIC was defined as the lowest concentration of peptides that prevented visible turbidity by visual inspection. […] After overnight incubation at 37 °C, MBC was defined as the lowest concentration of peptides that killed at least 99.9% of the initial inoculums. Experiments were performed in triplicate with three biological replicates.

[2] = test system: Clinically isolated Escherichia coli EC183; type: cell-based
Experimental: as §1

[3] = test system: Escherichia coli ATCC 25922; type: cell-based
Experimental: as §1

Escherichia coli UB1005 [4] = type: cell-based
Experimental: as §1

[5] = test system: Salmonella enterica serovar typhimurium C77-31; type: cell-based; conditions: three independent experiments; for MBC S. typhi C77-31: lowest concentration killing at least 99.9% of initial inoculum
Experimental: as §1

[6] = test system: Staphylococcus aureus ATCC 25923; type: cell-based; conditions: ATCC 25923, 18 h
Experimental: as §1

[7] = test system: Staphylococcus aureus ATCC 29213; type: cell-based
Experimental: as §1

[8] = test system: Staphylococcus epidermidis ATCC 12228; type: cell-based; conditions: ATCC 12228, 18 h
Experimental: as §1

[9] = test system: Candida albicans CGMCC 2.2086; assay: microbe, parasite or virus in culture; type: cell-based
From the text: (§2) The antifungal activities were monitored in RPMI-1640 broth medium by a 2-fold microdilution assay according to the Clinical and Laboratory Standards Institute (CLSI) methods. The Candida albicans CGMCC 2.2086, Candida tropicalis CGMCC 2.1975, and Candida krusei CGMCC 2.1857 fungal strains were purchased from the China General Microbiological Culture Collection Center (CGMCC, Beijing, China). Clinically isolated Candida albicans CA2761 was provided by the 4th Affiliated Hospital of Harbin Medical University. Briefly, fungal strains were cultured on YPD agar plates (1% peptone, 0.5% yeast extract, 1% glucose and 2% agar) at 28 °C to prepare Candida suspensions with a turbidity of a 0.5 McFarland standard. A total of 50 μl inoculum cell suspension diluted in RPMI-1640 broth medium was added to an equal volume of peptide solution to achieve a final peptide concentrations ranging from 0.25 μM to 128 μM in a 96-well plate. Pure broth alone or with inoculum suspensions was used as the negative control or the positive control, respectively. The plate was incubated at 28 °C for 48 h. MIC was considered the lowest concentration at which no fungal growth was visually observed under experimental conditions. […] After 48 h incubation at 28 °C, MFC was defined as the lowest concentration of peptides that killed at least 99.9% of the initial inoculums. Experiments were performed in triplicate with three biological replicates.

[10] = test system: Candida krusei CGMCC 2.1857; assay: microbe, parasite or virus in culture; type: cell-based
From the text: as §2

[11] = test system: Candida tropicalis CGMCC 2.1975; assay: microbe, parasite or virus in culture; type: cell-based
From the text: as §2

[12] = test system: C. albicans CA276 (clinical isolate); assay: microbe, parasite or virus in culture; type: cell-based, Candida albicans
From the text: as §2

[13] = test system: fungi (four Candida strains); assay: Geometric mean MIC and selectivity index, panel of fungi; type: cell-based; conditions: geometric mean of the MIC values against the fungi of Table 3
From the text: The antifungal activities were monitored in RPMI-1640 broth medium by a 2-fold microdilution assay according to the Clinical and Laboratory Standards Institute (CLSI) methods. The Candida albicans CGMCC 2.2086, Candida tropicalis CGMCC 2.1975, and Candida krusei CGMCC 2.1857 fungal strains were purchased from the China General Microbiological Culture Collection Center (CGMCC, Beijing, China). Clinically isolated Candida albicans CA2761 was provided by the 4th Affiliated Hospital of Harbin Medical University. Briefly, fungal strains were cultured on YPD agar plates (1% peptone, 0.5% yeast extract, 1% glucose and 2% agar) at 28 °C to prepare Candida suspensions with a turbidity of a 0.5 McFarland standard. A total of 50 μl inoculum cell suspension diluted in RPMI-1640 broth medium was added to an equal volume of peptide solution to achieve a final peptide concentrations ranging from 0.25 μM to 128 μM in a 96-well plate. Pure broth alone or with inoculum suspensions was used as the negative control or the positive control, respectively. The plate was incubated at 28 °C for 48 h. MIC was considered the lowest concentration at which no fungal growth was visually observed under experimental conditions. […]
SI values were determined by the ratio of MHC to GM, indicating the specificity of peptides towards pathogens and eukaryotic cells. […]

[14] = test system: Escherichia coli ATCC 25922; conditions: values marked c, determined as previously described; cited from earlier work
From the text: Table 2 MIC and MBC of the peptides against bacteria. | column: MIC ^a (MBC ^b) (μM) / Gram-negative bacteria / E. coli 25922

Escherichia coli UB1005 [15] = conditions: values marked c, determined as previously described; cited from earlier work
From the text: Table 2 MIC and MBC of the peptides against bacteria. | column: MIC ^a (MBC ^b) (μM) / Gram-negative bacteria / E. coli 1005

[16] = test system: Salmonella enterica serovar typhimurium C77-31; conditions: values marked c, determined as previously described; cited from earlier work
From the text: Table 2 MIC and MBC of the peptides against bacteria. | column: MIC ^a (MBC ^b) (μM) / Gram-negative bacteria / S. typhi C77-31

[17] = test system: Staphylococcus aureus ATCC 29213; conditions: values marked c, determined as previously described; cited from earlier work
From the text: Table 2 MIC and MBC of the peptides against bacteria. | column: MIC ^a (MBC ^b) (μM) / Gram-positive bacteria / S. aureus 29213

[18] = test system: Staphylococcus aureus ATCC 25923; conditions: values marked c, determined as previously described; cited from earlier work
From the text: Table 2 MIC and MBC of the peptides against bacteria. | column: MIC ^a (MBC ^b) (μM) / Gram-positive bacteria / S. aureus 25923

[19] = test system: Staphylococcus epidermidis ATCC 12228; conditions: values marked c, determined as previously described; cited from earlier work
From the text: Table 2 MIC and MBC of the peptides against bacteria. | column: MIC ^a (MBC ^b) (μM) / Gram-positive bacteria / S. epidermidis 12228

[20] = Clinically isolated EC183, 18 h
[21] = lowest concentration killing at least 99.9% of initial inoculum, three independent experiments
[22] = CLSI 2-fold microdilution, RPMI-1640, 28 °C for 48 h, visual, three independent experiments
[23] = lowest concentration killing at least 99.9% of initial inoculum, YPD agar, 48 h at 28 °C, three independent experiments

CC[C@H](C)[C@H](NC(=O)[C@H](Cc1c[nH]c2ccccc12)NC(=O)[C@H](CCCCN)NC(=O)[C@H](CC(C)C)NC(=O)[C@@H](NC(=O)[C@H](CCCCN)NC(=O)CNC(=O)[C@@H](NC(=O)[C@H](CCCCN)NC(=O)[C@H](CCCCN)NC(=O)[C@H](CC(C)C)NC(=O)[C@H](CCCNC(=N)N)NC(=O)[C@H](CCCCN)NC(=O)[C@H](CCCNC(=N)N)NC(=O)[C@@H](N)[C@@H](C)O)[C@@H](C)CC)C(C)C)C(N)=O [TI15] (H-TRKRLKKIGKVLKWI-NH2)
8 µM: MIC E. coli 25922 ([3]; ATCC 25922, 18 h) | MBC E. coli 1005 (Escherichia coli UB1005 [4]; UB1005, 18 h) | MIC S. typhi C77-31 ([5]; broth microdilution, MHB, ~1 × 10^5 CFU/ml, 18 h at 37 °C, visual) | MIC ([10]; CGMCC 2.1857, 48 h, read-out: MIC C. krusei 2.1857)
4 µM: MBC B. subtilis 63501 ([1]; CMCC 63501, 18 h) | MBC E. coli EC183 [2, 20] | MIC E. coli 1005 (Escherichia coli UB1005 [4]; UB1005, 18 h) | MFC ([11]; CGMCC 2.1975, 48 h, read-out: MFC C. tropicalis 2.1975)
128 µM: MBC S. aureus 25923 [6] | MBC S. aureus 29213 ([7]; ATCC 29213, 18 h) | MFC C. albicans CA276 ([12]; CA276 (clinical isolate, 48 h)) | MIC C. albicans CA276 ([12]; CA276 (clinical isolate, 48 h))
32 µM: MBC S. typhi C77-31 [5] | MIC S. aureus 25923 [6] | MIC S. aureus 29213 ([7]; ATCC 29213, 18 h) | MIC S. epidermidis 12228 [8]
2 µM: MIC B. subtilis 63501 ([1]; CMCC 63501, 18 h) | MIC E. coli EC183 [2, 20] | MIC ([11]; CGMCC 2.1975, 48 h, read-out: MIC C. tropicalis 2.1975)
64 µM: MBC S. epidermidis 12228 [8] | MFC C. albicans 2.2086 ([9]; CGMCC 2.2086, 48 h) | MIC C. albicans 2.2086 ([9]; CGMCC 2.2086, 48 h)
16 µM: MBC E. coli 25922 ([3]; ATCC 25922, 18 h) | MFC ([10]; CGMCC 2.1857, 48 h, read-out: MFC C. krusei 2.1857)

CC[C@H](C)[C@H](NC(=O)CN)C(=O)NCC(=O)N[C@@H](C)C(=O)N[C@H](C(=O)N[C@@H](CC(C)C)C(=O)N[C@@H](CCCCN)C(=O)N[C@H](C(=O)N[C@@H](CC(C)C)C(=O)N[C@H](C(=O)N[C@H](C(=O)NCC(=O)N[C@@H](CC(C)C)C(=O)N1CCC[C@H]1C(=O)N[C@@H](C)C(=O)N[C@@H](CC(C)C)C(=O)N[C@H](C(=O)N[C@@H](CO)C(=O)N[C@@H](Cc1c[nH]c2ccccc12)C(=O)N[C@H](C(=O)N[C@@H](CCCCN)C(=O)N[C@@H](CCCNC(=N)N)C(=O)N[C@@H](CCCCN)C(=O)N[C@@H](CCCNC(=N)N)C(=O)N[C@@H](CCC(N)=O)C(=O)N[C@@H](CCC(N)=O)C(N)=O)[C@@H](C)CC)[C@@H](C)CC)[C@@H](C)O)[C@@H](C)O)C(C)C)C(C)C [melittin, reference compound]
2^c (2) μM: MBC S. typhi C77-31 [5] | MIC S. typhi C77-31 [16]
8^c (8) μM: MIC S. aureus 25923 [18]
8 µM: MFC [9, 23] | MIC [12, 22] | MIC S. aureus 29213 [17]
4 µM: MBC E. coli 25922 ([3]; lowest concentration killing at least 99.9% of initial inoculum, plated on MHA after MIC incubation, three independent experiments) | MBC E. coli 1005 (Escherichia coli UB1005 [4]; [21]) | MIC [9, 22] | MFC [10, 23]
3.36 µM: GM (geometric mean of MIC values) Fungi [13]
16 µM: MBC S. aureus 29213 [7, 21] | MFC [12, 23]
0.5 µM: MIC S. epidermidis 12228 [19]
2 µM: MBC B. subtilis 63501 [1, 21] | MIC E. coli EC183 ([2]; broth microdilution, MHB, ~1 × 10^5 CFU/ml, 18 h at 37 °C, visual, three independent experiments) | MBC E. coli EC183 [2, 21] | MIC [10, 22] | MIC C. tropicalis 2.1975 [11, 22] | MFC C. tropicalis 2.1975 [11, 23] | MIC E. coli 25922 [14] | MIC E. coli 1005 (Escherichia coli UB1005 [15])
